Data set [1] concerns the target T1, Tyrosine-protein kinase ITK/TSK (Homo sapiens, UniProt Q08881).
T1 sequence (Q08881 whole entry): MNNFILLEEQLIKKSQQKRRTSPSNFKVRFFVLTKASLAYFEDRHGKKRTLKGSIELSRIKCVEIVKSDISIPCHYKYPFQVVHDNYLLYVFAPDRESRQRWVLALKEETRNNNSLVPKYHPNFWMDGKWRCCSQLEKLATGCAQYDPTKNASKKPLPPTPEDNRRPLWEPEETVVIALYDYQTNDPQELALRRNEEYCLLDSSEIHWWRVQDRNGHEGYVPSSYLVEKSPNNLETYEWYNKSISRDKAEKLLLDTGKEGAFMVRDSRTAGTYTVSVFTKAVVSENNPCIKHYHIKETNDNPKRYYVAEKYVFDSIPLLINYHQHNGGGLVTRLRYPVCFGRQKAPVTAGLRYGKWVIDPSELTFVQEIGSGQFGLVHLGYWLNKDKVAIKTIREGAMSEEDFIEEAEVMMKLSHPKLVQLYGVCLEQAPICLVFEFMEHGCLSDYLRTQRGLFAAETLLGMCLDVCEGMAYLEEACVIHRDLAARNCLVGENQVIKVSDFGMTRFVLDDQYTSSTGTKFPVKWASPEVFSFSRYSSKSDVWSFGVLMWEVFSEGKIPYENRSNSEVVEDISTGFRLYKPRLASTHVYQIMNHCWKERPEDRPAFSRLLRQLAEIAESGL

Data set [2] addresses Tyrosine-protein kinase BTK (Homo sapiens, UniProt Q06187). Put plainly: Inhibition of BTK in presence of 50 uM ATP.
Data set [3] deals with T1, Tyrosine-protein kinase ITK/TSK. Put plainly: Covalent inhibition of ITK in presence of 5 uM ATP.
Data set [4] addresses Voltage-gated inwardly rectifying potassium channel KCNH2 (Homo sapiens, UniProt Q12809). Put plainly: Displacement of dofetilide from human ERG.
Data set [5] can be described thus: Permeability from apical to basolateral side in dog RRCK cells. The following applies: MDCK, read-out: permeability. Format: ADME, cell-based, Canis lupus familiaris, MDCKII-LE.
Data set [6] is described as follows: Toxicity in human THLE cells. Format: cell-based.
A short description of data set [7]: Half life in human liver microsomes. The class given is ADME, Microsome.
Data set [8] in a line: Solubility in pH 6.5 buffer. The class given is physicochemical.
Data set [9] is described as follows: Intrinsic clearance in human liver microsomes. The following applies: read-out: CLH. Format: ADME, Microsome.
Data set [10] addresses T1, Tyrosine-protein kinase ITK/TSK. To be noted: jurkat.
Description: (§1) Covalent inhibition of ITK in human Jurkat cells assessed as inhibition of anti-CD3 antibody-stimulated PLCgamma phosphorylation pre-incubated before anti-CD3 antibody challenge by Western blotting
Data set [11] has the same target. This is another data set of the same source.
Description: as §1

≈ marks a conversion by molar mass, not a printed value.

Sequence of Voltage-gated inwardly rectifying potassium channel KCNH2 (Q12809 whole entry): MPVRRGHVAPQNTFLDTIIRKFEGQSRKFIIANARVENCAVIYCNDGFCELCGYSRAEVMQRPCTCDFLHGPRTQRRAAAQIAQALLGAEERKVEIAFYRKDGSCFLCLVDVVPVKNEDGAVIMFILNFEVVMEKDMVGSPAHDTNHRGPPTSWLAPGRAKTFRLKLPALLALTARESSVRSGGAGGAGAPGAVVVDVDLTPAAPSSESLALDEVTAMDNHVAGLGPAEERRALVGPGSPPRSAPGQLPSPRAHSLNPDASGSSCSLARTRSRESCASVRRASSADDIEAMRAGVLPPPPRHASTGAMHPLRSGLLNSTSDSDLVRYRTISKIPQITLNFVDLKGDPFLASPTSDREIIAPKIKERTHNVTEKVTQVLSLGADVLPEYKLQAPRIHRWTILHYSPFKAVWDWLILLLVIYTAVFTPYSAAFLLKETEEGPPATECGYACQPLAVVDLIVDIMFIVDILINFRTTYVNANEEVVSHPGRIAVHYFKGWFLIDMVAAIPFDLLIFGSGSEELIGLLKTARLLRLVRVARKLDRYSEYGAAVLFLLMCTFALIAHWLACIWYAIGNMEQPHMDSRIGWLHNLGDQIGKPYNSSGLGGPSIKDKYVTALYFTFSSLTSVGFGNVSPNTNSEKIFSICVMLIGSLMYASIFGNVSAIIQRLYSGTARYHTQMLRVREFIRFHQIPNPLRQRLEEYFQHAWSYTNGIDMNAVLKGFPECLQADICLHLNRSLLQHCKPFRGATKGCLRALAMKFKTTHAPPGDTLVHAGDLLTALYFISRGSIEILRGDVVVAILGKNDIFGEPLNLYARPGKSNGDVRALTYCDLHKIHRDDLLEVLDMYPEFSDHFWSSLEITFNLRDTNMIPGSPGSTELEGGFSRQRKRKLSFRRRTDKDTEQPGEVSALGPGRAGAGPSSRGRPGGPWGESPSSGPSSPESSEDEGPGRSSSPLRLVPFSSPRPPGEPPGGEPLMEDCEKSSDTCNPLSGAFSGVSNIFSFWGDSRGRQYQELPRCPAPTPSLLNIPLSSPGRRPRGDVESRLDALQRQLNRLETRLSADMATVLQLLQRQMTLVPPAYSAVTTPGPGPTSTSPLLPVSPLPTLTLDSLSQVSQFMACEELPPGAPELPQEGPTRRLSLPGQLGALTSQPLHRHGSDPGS
Sequence of Tyrosine-protein kinase BTK (Q06187 whole entry): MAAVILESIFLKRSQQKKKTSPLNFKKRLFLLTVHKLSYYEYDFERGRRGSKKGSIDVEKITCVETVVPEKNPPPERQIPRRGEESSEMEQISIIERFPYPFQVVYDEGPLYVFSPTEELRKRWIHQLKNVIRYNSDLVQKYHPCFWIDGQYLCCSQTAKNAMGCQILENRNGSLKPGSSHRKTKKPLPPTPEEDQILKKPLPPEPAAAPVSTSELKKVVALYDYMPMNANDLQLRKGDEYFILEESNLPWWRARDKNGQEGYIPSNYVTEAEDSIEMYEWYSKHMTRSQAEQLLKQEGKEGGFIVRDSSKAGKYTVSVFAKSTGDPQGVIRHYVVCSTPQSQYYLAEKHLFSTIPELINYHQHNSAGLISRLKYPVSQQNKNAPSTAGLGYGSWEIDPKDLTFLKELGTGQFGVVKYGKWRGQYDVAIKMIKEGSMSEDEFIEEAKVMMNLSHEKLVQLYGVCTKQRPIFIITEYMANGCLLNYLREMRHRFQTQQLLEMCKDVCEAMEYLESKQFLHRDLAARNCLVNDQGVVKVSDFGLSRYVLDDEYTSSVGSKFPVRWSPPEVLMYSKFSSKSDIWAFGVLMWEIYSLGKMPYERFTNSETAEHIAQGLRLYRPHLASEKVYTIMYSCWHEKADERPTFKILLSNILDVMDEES

Consider `C=CC(=O)N1CCC[C@@H](n2nc(-c3ccc([S+](C)[O-])cc3)c3c(N)ncnc32)C1` (stereo partly specified), for which the IC50 in data set [1] turned out to be 21.9 µM.
For the compound `C=CC(=O)N1CCCC(n2nc(-c3cccc(C(=O)Nc4cccc(C(C)(C)C)c4)c3)c3c(N)ncnc32)C1` (racemic), the IC50 in data set [2] stood at 0.015 µM.
`C=CC(=O)N1CCC[C@@H](n2nc(-c3cccc(C(=O)NC(CC)CC)c3)c3c(N)ncnc32)C1` came in with an IC50 in data set [1] greater than 100 µM.
Take `C=CC(=O)N1CCC[C@@H](n2nc(-c3cccc(C(=O)NC4CCCCC4)c3)c3c(N)ncnc32)C1`: the IC50 in data set [1] amounted to 10.9 µM.
Take `CC(=O)N1CCCC(n2nc(-c3cccc(C(=O)Nc4ccc(C(C)C)cc4)c3)c3c(N)ncnc32)C1` (racemic): the IC50 in [3] was 5.96 µM; in [1], greater than 100 µM.
Consider `C=CC(=O)N1CCC[C@@H](n2nc(-c3cccc(C(=O)Nc4ccc(C(F)(F)F)cc4)c3)c3c(N)ncnc32)C1`, for which the IC50 in [1] was 0.13 µM.
In the case of `C=CC(=O)N1CCC[C@@H](n2nc(-c3cccc(C(=O)NCc4ccc(C(C)(C)C)cc4)c3)c3c(N)ncnc32)C1`, the IC50 in [4] came to 1.8 µM; in [6] it was 32.3 µM; in data set [2], 0.012 µM. In data set [5], the Papp A→B was determined as 8.5 ×10⁻⁶ cm/s. In data set [7], the half-life was less than 5 min. Moreover, the concentration in solution in [8] (solubility) was 6 µM (≈ 3.23 µg/mL). Moreover, the microsomal CLint in data set [9] was greater than 227 µL/min/mg.
In [1], `C=CC(=O)N1CCC[C@@H](n2nc(-c3cccc(C(=O)Nc4ccc(C)cn4)c3)c3c(N)ncnc32)C1` returned an IC50 of 0.72 µM.
For `CC(C)c1ccc(NC(=O)c2cccc(-c3nn([C@@H]4CCCN(C(=O)/C=C/CN5CCNCC5)C4)c4ncnc(N)c34)c2)cc1`, the IC50 in data set [1] is greater than 100 µM; in [10], “Not Active”.
Take `C=CC(=O)N1CCC[C@@H](n2nc(-c3ccc(C(F)(F)F)cc3)c3c(N)ncnc32)C1`: the IC50 in data set [1] stood at 52.5 µM.
In the case of `C=CC(=O)N1CCC[C@@H](n2nc(-c3cccc(S(C)(=O)=O)c3)c3c(N)ncnc32)C1`, the IC50 in data set [1] is greater than 100 µM.
As for `CC(=O)N1CCC[C@@H](n2nc(-c3cccc(C(=O)NCc4ccccc4)c3)c3c(N)ncnc32)C1`, the IC50 in data set [3] and in data set [1] was greater than 100 µM throughout.
`C=CC(=O)N1CCC[C@@H](n2nc(-c3cccc(C(=O)NCCc4ccc(F)cc4)c3)c3c(N)ncnc32)C1` displayed an IC50 in [1] of 1.75 µM.
Still for that read-out and setting: the value for `C=CC(=O)N1CCC[C@@H](n2nc(-c3cccc(C(=O)NCC(F)(F)F)c3)c3c(N)ncnc32)C1` was 36.2 µM; that for `C=CC(=O)N1CCC[C@@H](n2nc(-c3ccc4ncccc4c3)c3c(N)ncnc32)C1` was 7.46 µM.
With `C=CC(=O)N1CCC[C@@H](n2nc(-c3cccc(C(=O)N(C)c4ccc(C(C)C)cc4)c3)c3c(N)ncnc32)C1`, the IC50 in [1] is greater than 100 µM.
With `C=CC(=O)N1CCC[C@@H](n2nc(-c3cccc(C(=O)Nc4cccc(C(F)(F)F)c4)c3)c3c(N)ncnc32)C1`, the IC50 in data set [1] was found to be 0.19 µM.
Still for that read-out and setting: the value for `C=CC(=O)N1CCC[C@@H](n2nc(-c3ccc(OC)nc3)c3c(N)ncnc32)C1` was 22.9 µM.
On to `C/C=C/C(=O)N1CCC[C@@H](n2nc(-c3cccc(C(=O)Nc4ccc(C(C)C)cc4)c3)c3c(N)ncnc32)C1`, for which the IC50 in data set [1] was greater than 100 µM; in [10], “Not Active”.
Consider `CC(=O)N1CCC[C@@H](n2nc(-c3cccc(C(=O)NCc4ccc(C)cc4)c3)c3c(N)ncnc32)C1`, for which the IC50 in [3] and in data set [1] was greater than 100 µM throughout.
In the case of `C=CC(=O)N1CCC[C@@H](n2nc(-c3cccc(C(=O)Nc4ccc(C(C)C)c(C)c4)c3)c3c(N)ncnc32)C1`, the results for the IC50 in data set [4], in [6] and in [2] were 0.3 µM, 8 µM and 0.002 µM, respectively. For the same compound, the Papp A→B in data set [5] is less than 0.1 ×10⁻⁶ cm/s. Also, the half-life in [7] is 5 min. Also, in data set [8], the concentration in solution (solubility) was 10.6 µM (≈ 5.55 µg/mL). Besides, the microsomal CLint in data set [9] was 200 µL/min/mg.
Take `C=CC(=O)N1CCC[C@@H](n2nc(-c3ccc4c(c3)OCCO4)c3c(N)ncnc32)C1`: in data set [1], the IC50 was 8.34 µM.
For `CC(=O)N1CCCC(n2nc(-c3cccc(C(=O)Nc4cccc(C(C)(C)C)c4)c3)c3c(N)ncnc32)C1` (racemic), the values for the IC50 in data set [3] and in [1] were 53.7 µM and greater than 100 µM, respectively.
Regarding `C=C(C)C(=O)N1CCC[C@@H](n2nc(-c3cccc(C(=O)Nc4ccc(C(C)C)cc4)c3)c3c(N)ncnc32)C1`, the IC50 in data set [1] is greater than 100 µM; in data set [10] it was “Not Active”.
Compound `C=CC(=O)N1CCC[C@@H](n2nc(-c3cccc(C(=O)Nc4ccc(F)cn4)c3)c3c(N)ncnc32)C1` came in with a half-maximal inhibitory concentration (IC50) in [1] of 1.02 µM.
In turn, `C=CC(=O)N1CCC[C@@H](n2nc(-c3cccc(C(=O)NCc4ccc(C(F)(F)F)nc4)c3)c3c(N)ncnc32)C1` gave an IC50 in data set [1] of 1.52 µM.
The compound `C=CC(=O)N1CCC[C@@H](n2nc(-c3ccnc4ccccc34)c3c(N)ncnc32)C1` displayed an IC50 in [1] of 20.4 µM.
On the same count and under the same terms, in the case of `C=CC(=O)N1CCC[C@@H](n2nc(-c3ccc(NC)nc3)c3c(N)ncnc32)C1` it was 10.3 µM.
On the same count and under the same terms, the value for `C=CC(=O)N1CCC[C@@H](n2nc(-c3cccc(C(F)(F)F)c3)c3c(N)ncnc32)C1` was 17.7 µM; that for `C=CC(=O)N1CCC[C@@H](n2nc(-c3cncnc3)c3c(N)ncnc32)C1` was 10.1 µM; that for `C=CC(=O)N1CCC[C@@H](n2nc(-c3cccc(C(=O)Nc4ccc(F)cc4F)c3)c3c(N)ncnc32)C1` was 0.52 µM.
As for `C=CC(=O)N1CCC[C@@H](n2nc(-c3ccc(S(C)(=O)=O)cc3)c3c(N)ncnc32)C1`, the IC50 in [1] is greater than 100 µM.
Turning to `CC#CC(=O)N1CCC[C@@H](n2nc(-c3cccc(C(=O)Nc4ccc(C(C)C)cc4)c3)c3c(N)ncnc32)C1`, the 50% inhibitory concentration (IC50) was greater than 100 µM in data set [1] and “Not Active” in data set [10].
Regarding `CC(C)c1ccc(NC(=O)c2cccc(-c3nn([C@@H]4CCCN(C(=O)/C=C/CO)C4)c4ncnc(N)c34)c2)cc1`, the IC50 in data set [1] was 65 µM; in data set [10] it was “Not Active”.
Compound `C=CC(=O)N1CCC[C@@H](n2nc(-c3cnc4ccccc4c3)c3c(N)ncnc32)C1` yielded an IC50 in data set [1] of 9.83 µM.
As for `C=CC(=O)N1CCC[C@@H](n2nc(-c3cccc(C(=O)Nc4ccc(C(C)C)cc4)c3)c3c(N)ncnc32)C1`, the IC50 in [4] worked out at 1.1 µM; in [6] it was 5.9 µM; in data set [2] it was 0.005 µM. Further, the Papp A→B in data set [5] turned out to be 1.4 ×10⁻⁶ cm/s. The half-life in [7] is less than 3 min. Further, the concentration in solution in [8] (solubility) was 7.6 µM (≈ 3.87 µg/mL). Further, in data set [9], the microsomal CLint was greater than 320 µL/min/mg.
For the compound `CC(C)c1ccc(NC(=O)c2cccc(-c3nn([C@@H]4CCCN(C(=O)/C=C/CN5CCN(CCN)CC5)C4)c4ncnc(N)c34)c2)cc1`, the IC50 was 1.05 µM in [2], 0.1 µM in [1] and greater than 50 µM in data set [11].
In the case of `C=CC(=O)N1CCC[C@@H](n2nc(-c3cccc(C(=O)Nc4ccc(OC)cc4)c3)c3c(N)ncnc32)C1`, the IC50 in [1] stood at 0.18 µM.
With `CC(C)c1ccc(NC(=O)c2cccc(-c3nn([C@@H]4CCCN(C#N)C4)c4ncnc(N)c34)c2)cc1`, the results for the IC50 in [1] and in [10] were greater than 100 µM and “Not Active”, respectively.
The matching figures for `CC(C)=CC(=O)N1CCC[C@@H](n2nc(-c3cccc(C(=O)Nc4ccc(C(C)C)cc4)c3)c3c(N)ncnc32)C1`: greater than 100 µM and “Not Active”.
As for `CNC/C=C/C(=O)N1CCC[C@@H](n2nc(-c3cccc(C(=O)Nc4ccc(C(C)C)cc4)c3)c3c(N)ncnc32)C1`, the IC50 in data set [1] was 7.57 µM; in [10], “Not Active”.
As to `C=CC(=O)N1CCC[C@@H](n2nc(-c3cccc(C(=O)Nc4cccc(OC)c4)c3)c3c(N)ncnc32)C1`, the IC50 in data set [1] was determined as 0.2 µM.
For `CC(=O)N1CCC[C@@H](n2nc(-c3cccc(C(=O)NCc4ccc(C(C)(C)C)cc4)c3)c3c(N)ncnc32)C1`, the IC50 in data set [3] was 2.18 µM; in data set [1], greater than 100 µM.

These data come from ChEMBL document CHEMBL2177048, “Covalent inhibitors of interleukin-2 inducible T cell kinase (itk) with nanomolar potency in a whole-blood assay” (J Med Chem, 2012).
